Assay results as given in patent US20130225830A1, “POLYMORPHS OF FEBUXOSTAT” (MAPI PHARMA LIMITED, priority 2010, published 2013).

Test: Hygroscopicity measurements (DVS sorption/desorption profiles)
Type: physicochemical
Settings: for Hygroscopicity classification: 0-90% relative humidity
Protocol: The sorption/desorption profiles of the forms of the present invention were tested at 25° C. under 0-90% relative humidity. The forms of the present invention were classified according to the following criteria: Deliquescent: Sufficient water is absorbed to form a liquid. […] Hygroscopic: Increase in mass is less than 15% and equal to or greater than 2%. Slightly hygroscopic: Increase in mass is less than 2% and equal to or greater than 0.2%. Non-hygroscopic: Increase in mass is less than 0.2%.

Structure (SMILES)	Hygroscopicity classification (25° C.)	Change in Mass (%) - ref, Desorption (Target % P/P0 0.0, 25° C.) [%]	Change in Mass (%) - ref, Sorption (Target % P/P0 0.0, 25° C.) [%]	Change in Mass (%) - ref, Desorption (Target % P/P0 10.0, 25° C.) [%]	Change in Mass (%) - ref, Hysteresis (Target % P/P0 10.0, 25° C.) [%]	Change in Mass (%) - ref, Sorption (Target % P/P0 10.0, 25° C.) [%]	Change in Mass (%) - ref, Desorption (Target % P/P0 20.0, 25° C.) [%]	Change in Mass (%) - ref, Hysteresis (Target % P/P0 20.0, 25° C.) [%]	Change in Mass (%) - ref, Sorption (Target % P/P0 20.0, 25° C.) [%]	Change in Mass (%) - ref, Desorption (Target % P/P0 30.0, 25° C.) [%]	Change in Mass (%) - ref, Hysteresis (Target % P/P0 30.0, 25° C.) [%]	Change in Mass (%) - ref, Sorption (Target % P/P0 30.0, 25° C.) [%]	Change in Mass (%) - ref, Desorption (Target % P/P0 40.0, 25° C.) [%]	Change in Mass (%) - ref, Hysteresis (Target % P/P0 40.0, 25° C.) [%]	Change in Mass (%) - ref, Sorption (Target % P/P0 40.0, 25° C.) [%]	Change in Mass (%) - ref, Desorption (Target % P/P0 50.0, 25° C.) [%]	Change in Mass (%) - ref, Hysteresis (Target % P/P0 50.0, 25° C.) [%]	Change in Mass (%) - ref, Sorption (Target % P/P0 50.0, 25° C.) [%]	Change in Mass (%) - ref, Desorption (Target % P/P0 60.0, 25° C.) [%]	Change in Mass (%) - ref, Hysteresis (Target % P/P0 60.0, 25° C.) [%]	other results
Cc1nc(-c2ccc(OCC(C)C)c(C#N)c2)sc1C(=O)O [Form IX, 2-(3-cyano-4-isobutoxyphenyl)-4-methyl-5-thiazolecarboxylic acid]	hygroscopic	0.031	0.000	0.247	0.121	0.127	0.323	0.128	0.195	0.428	0.176	0.252	0.510	0.160	0.351	0.616	0.184	0.432	0.786	0.221	hygroscopicity compared with Form G of U.S. Pat. No. 6,225,474 (DVS isotherm plots): less hygroscopic; Change in Mass (%) - ref, Sorption (Target % P/P0 60.0, 25° C.): 0.566%; Change in Mass (%) - ref, Desorption (Target % P/P0 70.0, 25° C.): 1.139%; Change in Mass (%) - ref, Hysteresis (Target % P/P0 70.0, 25° C.): 0.391%; Change in Mass (%) - ref, Sorption (Target % P/P0 70.0, 25° C.): 0.747%; Change in Mass (%) - ref, Desorption (Target % P/P0 80.0, 25° C.): 1.583%; Change in Mass (%) - ref, Hysteresis (Target % P/P0 80.0, 25° C.): 0.583%; Change in Mass (%) - ref, Sorption (Target % P/P0 80.0, 25° C.): 1.000%; Change in Mass (%) - ref, Desorption (Target % P/P0 90.0, 25° C.): 2.135%; Change in Mass (%) - ref, Sorption (Target % P/P0 90.0, 25° C.): 2.135%
Cc1nc(-c2ccc(OCC(C)C)c(C#N)c2)sc1C(=O)O [Form V, 2-(3-cyano-4-isobutoxyphenyl)-4-methyl-5-thiazolecarboxylic acid]	very hygroscopic	−9.66	0.00	−8.56	−8.64	0.08	−8.49	−8.60	0.12	−8.40	−8.53	0.14	−8.30	−8.50	0.20	1.16	0.93	0.23	7.34	7.02	weight loss after sorption-desorption cycle (DVS, 25° C., might be attributed to DMSO evaporation at high humidity): about 10%; Change in Mass (%) - ref, Sorption (Target % P/P0 60.0, 25° C.): 0.31%; Change in Mass (%) - ref, Desorption (Target % P/P0 70.0, 25° C.): 14.03%; Change in Mass (%) - ref, Hysteresis (Target % P/P0 70.0, 25° C.): 12.45%; Change in Mass (%) - ref, Sorption (Target % P/P0 70.0, 25° C.): 1.59%; Change in Mass (%) - ref, Desorption (Target % P/P0 80.0, 25° C.): 23.42%; Change in Mass (%) - ref, Hysteresis (Target % P/P0 80.0, 25° C.): 7.98%; Change in Mass (%) - ref, Sorption (Target % P/P0 80.0, 25° C.): 15.44%; Change in Mass (%) - ref, Desorption (Target % P/P0 90.0, 25° C.): 36.92%; Change in Mass (%) - ref, Sorption (Target % P/P0 90.0, 25° C.): 36.92%
Cc1nc(-c2ccc(OCC(C)C)c(C#N)c2)sc1C(=O)O [Form XI, 2-(3-cyano-4-isobutoxyphenyl)-4-methyl-5-thiazolecarboxylic acid]	hygroscopic	−0.052	0.001	0.973	0.164	0.810	1.210	0.146	1.064	1.425	0.203	1.222	1.560	0.150	1.410	1.728	0.169	1.559	1.948	0.166	Change in Mass (%) - ref, Sorption (Target % P/P0 60.0, 25° C.): 1.782%; Change in Mass (%) - ref, Desorption (Target % P/P0 70.0, 25° C.): 2.187%; Change in Mass (%) - ref, Hysteresis (Target % P/P0 70.0, 25° C.): 0.130%; Change in Mass (%) - ref, Sorption (Target % P/P0 70.0, 25° C.): 2.057%; Change in Mass (%) - ref, Desorption (Target % P/P0 80.0, 25° C.): 2.503%; Change in Mass (%) - ref, Hysteresis (Target % P/P0 80.0, 25° C.): 0.089%; Change in Mass (%) - ref, Sorption (Target % P/P0 80.0, 25° C.): 2.414%; Change in Mass (%) - ref, Desorption (Target % P/P0 90.0, 25° C.): 3.111%; Change in Mass (%) - ref, Sorption (Target % P/P0 90.0, 25° C.): 3.111%
